Results on 10 compounds are retold here after patent US9062033B2, “Chemical compounds” (Rottapharm Biotech S.r.l., priority 2011, dated 2015).

In one assay the target is T1, human OX1 receptors (Homo sapiens, UniProt O43613).
T1 construct: expressed in transfected cells; host or cells: CHO cells
T1 sequence (O43613 1-425): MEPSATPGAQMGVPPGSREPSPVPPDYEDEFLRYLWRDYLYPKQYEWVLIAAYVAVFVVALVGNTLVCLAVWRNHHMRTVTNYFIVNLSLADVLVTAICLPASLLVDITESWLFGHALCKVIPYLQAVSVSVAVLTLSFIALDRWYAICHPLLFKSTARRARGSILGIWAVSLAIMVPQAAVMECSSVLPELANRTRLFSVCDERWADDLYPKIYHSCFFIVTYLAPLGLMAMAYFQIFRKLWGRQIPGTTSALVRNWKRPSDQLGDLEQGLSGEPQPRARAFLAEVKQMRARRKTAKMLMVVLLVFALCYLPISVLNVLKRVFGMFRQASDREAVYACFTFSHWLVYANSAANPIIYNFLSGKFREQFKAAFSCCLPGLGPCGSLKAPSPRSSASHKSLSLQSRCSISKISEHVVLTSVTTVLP
Briefly: Antagonistic activity against human OX1 receptor, [Ca2+]i fluorimetry (Fluo-4NW) in transfected CHO cells activated with orexin-A. Type of assay: cell-based. The note with it: for Kb: CHO cells transfected with human recombinant OX1, orexin-A 3 nM, pKb = co-logarithm of apparent dissociation constant, modified Cheng Prusoff. The method, then:
(§1) In a typical experiment, the antagonistic activity against human OX1 and OX2 receptors is determined by using CHO e HEK-293 cells transfected with human recombinant OX1 and OX2 receptors respectively, seeded at density of 2 and 3×10^4 cells/well respectively in a 96 fluorimetry well plate. Thus the plate was loaded with the calcium dye (Fluo-4NW/probenecid in HBSS, Hepes 20 mM, pH 7.4; Invitrogen) at 37° C. for 60 min. Afterward the temperature was equilibrated at 22° C. for 15 min and the [Ca2+]i measured directly on the plate by using a fluorescent plate reader (CellLux Perkin Elmer).
(§2) Invention compounds were dissolved in DMSO, diluted in HBSS (DMSO, 0.3% final) and added to the wells. After 5 min CHO cells were activated with orexin-A, 3 nM while HEK-293 cells were activated with orexin-B, 10 nM.
(§3) The compounds, dissolved in DMSO and diluted in the medium (DMSO, 0.3% final), have been analysed in the 1 nM-1 μM concentration range (every concentration in duplicate). The antagonistic activity has been expressed as pKb (co-logarithm of the apparent dissociation constant calculated by using the modified Cheng Prusoff equation).
(§4) The results are expressed as percent of control specific […] response ((measured specific response/control specific agonist response)×100) obtained in the presence of the test compounds.
(§5) The IC50 values (concentration causing a half-maximal inhibition of the control specific agonist response) were determinated by non-linear regression analysis of the concentration curves generated with mean replicate values using hill equation curve fitting. The IC50 values are obtained by the arithmetical mean of at least two experiments. Compounds of the following example tested according to this example gave pKbs as follows: […]

A further assay concerns the target T2, human OX2 receptors (Homo sapiens, UniProt O43614).
T2 construct: expressed in transfected cells; host or cells: HEK-293 cells
T2 sequence (O43614 1-444): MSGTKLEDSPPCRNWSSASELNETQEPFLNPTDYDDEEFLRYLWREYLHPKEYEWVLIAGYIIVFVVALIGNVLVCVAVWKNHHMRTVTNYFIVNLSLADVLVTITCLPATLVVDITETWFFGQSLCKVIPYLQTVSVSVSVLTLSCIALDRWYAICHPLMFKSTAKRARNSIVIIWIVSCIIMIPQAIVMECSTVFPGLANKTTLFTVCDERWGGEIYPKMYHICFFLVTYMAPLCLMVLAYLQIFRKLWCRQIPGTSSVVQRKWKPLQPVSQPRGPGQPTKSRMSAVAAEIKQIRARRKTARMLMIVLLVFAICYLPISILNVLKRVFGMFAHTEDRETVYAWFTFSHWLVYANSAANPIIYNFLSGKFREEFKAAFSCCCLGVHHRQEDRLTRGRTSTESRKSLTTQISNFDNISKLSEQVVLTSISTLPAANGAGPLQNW
Briefly: Antagonistic activity against human OX2 receptor, [Ca2+]i fluorimetry (Fluo-4NW) in transfected HEK-293 cells activated with orexin-B. Type of assay: cell-based. The following applies: for Kb: HEK-293 cells transfected with human recombinant OX2, orexin-B 10 nM, pKb = co-logarithm of apparent dissociation constant, modified Cheng Prusoff. The method, then: as §1, §2, §3, §4, §5

Setting [1] is: comparison table with compound of WO2011006960.

`Cc1ccc(-c2ncccn2)c(C(=O)N2CC3(CC3)C[C@H]2CNc2cnc(C(F)(F)F)cn2)n1` [Compound 3h, (S)-(6-methyl-3-(pyrimidin-2-yl)pyridin-2-yl)(6-(((5-(trifluoromethyl)pyrazin-2-yl)amino)methyl)-5-azaspiro[2.4]heptan-5-yl)methanone]: the figures for the Kb on human OX1 receptors and on human OX2 receptors were 0.00631 µM and 0.0398 µM, respectively.

Take `Cc1cc(C)nc(NC[C@@H]2CC3(CC3)CN2C(=O)c2nc(C)sc2-c2ccccc2)n1` [Compound 2f, (S)-(6-(((4,6-dimethylpyrimidin-2-yl)amino)methyl)-5-azaspiro[2.4]heptan-5-yl)(2-methyl-5-phenylthiazol-4-yl)methanone]: the Kb is 0.0316 µM on human OX1 receptors and 0.00251 µM on human OX2 receptors.

For `Cc1ccc(-c2ncccn2)c(C(=O)N2CC3(CC3)C[C@H]2CNc2cc(C(F)(F)F)ccn2)c1` [Compound 1n, (S)-(5-methyl-2-(pyrimidin-2-yl)phenyl)(6-(((4-(trifluoromethyl)pyridin-2-yl)amino)methyl)-5-azaspiro[2.4]heptan-5-yl)methanone], the values for the Kb on human OX1 receptors and at human OX2 receptors were 0.0501 µM and 0.0158 µM, respectively. Further, the “pKb OX1” value at human OX1 receptors (setting [1]) is given as 7.3. Also, at human OX2 receptors (setting [1]), the “pKb OX2” value is 7.8.

As to `Cc1ccc(OCc2cccc(F)c2F)c(C(=O)N2CC3(CC3)C[C@H]2CNc2ccc(C(F)(F)F)cn2)n1` [Compound 3l, (S)-(3-((2,3-difluorobenzyl)oxy)-6-methylpyridin-2-yl)(6-(((5-(trifluoromethyl)pyridin-2-yl)amino)methyl)-5-azaspiro[2.4]heptan-5-yl)methanone], the Kb at human OX1 receptors was 0.0251 µM; at human OX2 receptors, 0.00794 µM.

For the compound `N#Cc1ccc(-c2ncccn2)c(C(=O)N2CC3(CC3)C[C@H]2CNc2ccc(C(F)(F)F)cn2)c1` [Compound E12, (S)-4-(pyrimidin-2-yl)-3-(6-(((5-(trifluoromethyl)-pyridin-2-yl)amino)methyl)-5-azaspiro[2.4]heptane-5-carbonyl)benzonitrile], the figures for the Kb on human OX1 receptors and at human OX2 receptors were 0.01 µM and 0.00794 µM, respectively.

On to `Cc1ccc(OCc2ccccc2)c(C(=O)N2CC3(CC3)C[C@H]2CNc2ccc(C(F)(F)F)cn2)n1` [Compound 3k, (S)-(3-(benzyloxy)-6-methylpyridin-2-yl)(6-(((5-(trifluoromethyl)pyridin-2-yl)amino)methyl)-5-azaspiro[2.4]heptan-5-yl)methanone], for which the Kb on human OX1 receptors and at human OX2 receptors was 0.00251 µM each time.

Turning to `Cc1ccc(-c2ncccn2)c(C(=O)N2CC3(CC3)C[C@H]2CNc2ncc(C(F)(F)F)cc2F)c1` [Compound 1l, (S)-(6-(((3-fluoro-5-(trifluoromethyl)pyridin-2-yl)amino)methyl)-5-azaspiro[2.4]heptan-5-yl)(5-methyl-2-(pyrimidin-2-yl)phenyl)methanone], the Kb at human OX1 receptors was 0.00501 µM; at human OX2 receptors it was 0.0251 µM.

In the case of `Cc1nc(C(=O)N2CC3(CC3)C[C@H]2CNc2ncc(Cl)cn2)c(-c2ccccc2)s1` [Compound 2g, (S)-(6-(((5-chloropyrimidin-2-yl)amino)methyl)-5-azaspiro[2.4]heptan-5-yl)(2-methyl-5-phenylthiazol-4-yl)methanone], the antagonist equilibrium constant (Kb) at human OX1 receptors and at human OX2 receptors was 0.158 µM in each case.

Consider `O=C(c1cc(Cl)ccc1-c1ncccn1)N1CC2(CC2)C[C@H]1CNc1ncc(C(F)(F)F)cn1` [Compound 1u, (S)-(5-chloro-2-(pyrimidin-2-yl)phenyl)(6-(((5-(trifluoromethyl)pyrimidin-2-yl)amino)methyl)-5-azaspiro[2.4]heptan-5-yl)methanone], for which the values for the antagonist dissociation constant (Kb) on human OX1 receptors and at human OX2 receptors were 0.0158 µM and 0.2 µM, respectively.

Take `Cc1ccc(-c2ncccn2)c(C(=O)N2CC3(CC3)C[C@H]2CNc2nccc3ncccc23)n1` [Compound 3p, (S)-(6-(((1,6-naphthyridin-5-yl)amino)methyl)-5-azaspiro[2.4]heptan-5-yl)(6-methyl-3-(pyrimidin-2-yl)pyridin-2-yl)methanone]: the Kb at human OX1 receptors is 0.126 µM; at human OX2 receptors it was 0.0251 µM.

Usually Kb stands for the affinity of an antagonist, worked out from how it opposes an agonist.
